Measured values reported in US11046693B2, “Pyrido-phenanthroline derivatives, production and use thereof as medicaments” (Christian-Albrechts-Universitat Zu Kiel, priority 2016, dated 2021).
Structures can show the parent of a compound that is named as a salt.

What was measured:
[1] = system: 60 different human pathogenic tumor cell lines; assay: DTP NCI-60 in vitro human tumor cell line screening (SRB); assay type: cell-based; conditions: mean growth inhibition of all 60 tumor cell lines, two days exposure
Protocol: For studying the pharmacological properties, the compounds of Examples 1 to 3 were tested under the “DTP NCI-60 in vitro human tumor cell line screening” of the National Cancer Institute (NCI), Bethesda, Md., United States. They were tested against 60 different human pathogenic tumor cell lines which originated from nine types of cancer (leukemia, non-small cell lung cancer, colon cancer, cancer of the CNS, melanoma, ovarian cancer, renal cancer, prostate cancer, breast cancer). To assess efficacy, the tumor cells were exposed to the compounds over two days, then growth inhibition was determined indirectly by determining the protein biomass with sulforhodamine B (SRB). Untreated cultures were used as reference. The mean-graph midpoint (MG_MIDGGI50) corresponds to a mean response rate of all tested human cell lines for the substance tested.

[2] = Solubility pH 7.4 by HPLC analysis; assay type: physicochemical; conditions: aqueous buffer; pH 7.4, HPLC analysis
logD by HPLC analysis = assay type: physicochemical; conditions: determined using HPLC analysis
[3] = system: colon carcinoma and non-small cell lung cancer; conditions: in-vivo xenograft; cited from earlier work
[4] = system: malignant melanoma, cervical cancer, and cancer of the parotid gland; conditions: clinical phase I; cited from earlier work
HeLa cells = assay: PARP apoptosis assay (HeLa cells); assay type: cell-based; conditions: after 8 h, FIG. 3
Protocol: (§1) In addition, exemplary compound 1 was tested for apoptotic activity. The enzyme PARP (poly-ADP ribose polymerase) can be used to determine the apoptotic status of a cell; the enzyme is cleaved into a 89 kDa fragment when the cell transitions into apoptosis and can therefore serve as a apoptosis marker ([…] S H et al, Cancer Research, 1993; 53:3976-3985). […] Etoposide was chosen as reference compound and tested as well.

[5] = system: PARP (poly-ADP ribose polymerase) cleavage; assay: PARP assay comparing Example 1 and PZA (FIG. 4); assay type: cell-based
Protocol: as §1
Another PARP assay was performed to obtain a direct comparison of the pro-apoptotic effects of Example 1 (here: P8D 6) and the potent dual topoisomerase I/II inhibitor pyrazoloacridine (PZA) known from literature (FIG. 4).

[6] = system: malignant melanoma, hepatocellular carcinoma, and mesothelioma; conditions: clinical study, with carboplatin; cited from earlier work
[7] = system: pancreatic carcinoma, ovarian carcinoma, and prostate cancer; conditions: phase II study, at least some cases; cited from earlier work
human topoisomerase I = molecular target: T1, human topoisomerase I (Homo sapiens, UniProt P11387); assay: Relaxation assay (supercoiled plasmid pUC18); assay type: biochemical
T1 sequence (P11387 1-765): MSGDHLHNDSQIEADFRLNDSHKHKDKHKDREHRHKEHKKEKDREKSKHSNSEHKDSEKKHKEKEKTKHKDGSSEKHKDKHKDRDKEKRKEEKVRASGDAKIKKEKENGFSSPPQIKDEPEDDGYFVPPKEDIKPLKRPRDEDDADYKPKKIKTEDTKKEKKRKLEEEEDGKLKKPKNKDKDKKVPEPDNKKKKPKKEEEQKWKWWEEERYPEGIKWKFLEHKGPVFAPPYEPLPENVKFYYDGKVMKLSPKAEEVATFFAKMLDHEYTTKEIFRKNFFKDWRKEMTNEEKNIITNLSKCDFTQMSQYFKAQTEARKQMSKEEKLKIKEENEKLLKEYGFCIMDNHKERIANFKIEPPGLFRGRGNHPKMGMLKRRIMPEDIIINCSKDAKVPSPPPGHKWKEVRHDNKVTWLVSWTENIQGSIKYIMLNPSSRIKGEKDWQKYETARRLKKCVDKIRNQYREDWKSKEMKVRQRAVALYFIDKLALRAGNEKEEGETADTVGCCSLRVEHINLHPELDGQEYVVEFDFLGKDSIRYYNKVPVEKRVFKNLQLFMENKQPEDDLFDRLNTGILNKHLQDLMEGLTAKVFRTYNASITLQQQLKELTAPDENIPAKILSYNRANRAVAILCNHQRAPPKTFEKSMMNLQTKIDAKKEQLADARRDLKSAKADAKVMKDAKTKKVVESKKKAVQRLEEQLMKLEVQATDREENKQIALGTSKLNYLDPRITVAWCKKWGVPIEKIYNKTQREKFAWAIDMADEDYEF
From the text: A relaxation assay can be used to determine the inhibition of human DNA topoisomerase I by a substance. Topo I is capable of transforming the supercoiled plasmid pUC18 into the relaxed form.

human topoisomerase IIα = human topoisomerase IIα (Homo sapiens, UniProt P11388); assay: Decatenation assay (kDNA); assay type: biochemical; conditions: for inhibition of topo IIα: 10 μM and 100 μM, FIG. 2 lanes 4 and 5
From the text: (§2) A decatenation assay was used, which can be used to determine the inhibition of human topoisomerases II (α/β) by a substance. The protein is capable of decatenating kinetoplastid DNA (kDNA), which is present in the form of interlocked minicircles (so-called catenates), i.e. of cleaving it into individual minicircles.

human topoisomerase IIβ = human topoisomerase IIβ (Homo sapiens, UniProt Q02880); assay: Decatenation assay (kDNA); assay type: biochemical; conditions: all three enzymes tested; read-out: IC50 topoisomerase IIβ
From the text: as §2

[8] = Tolerability / MTD study, one-time intravenous application; assay type: in vivo, female athymic nude mice
Protocol: The maximum tolerated dose (MTD) was determined as part of an in vivo study of tolerability of P8-D6 in female athymic nude mice.
A total of 18 female athymic nude mice at ages of 7 weeks (groups 1 and 2), 8 weeks (groups 3 and 4), and 9 weeks (groups 5 and 6) were involved in the in vivo study.
To determine the tolerability of P8-D6 for a one-time intravenous application into the tail vein, the study animals of groups 2, 4, and 6 (3 animals per group) were given P8-D6 at doses of 1 mg/kg body weight, 5 mg/kg body weight, and 10 mg/kg body weight on study days 0, 7, and 14, respectively. The control animals of groups 1, 3, and 5 (3 animals per group) were administered PBS (phosphate buffered saline) (pH 7.4) at a dose of 10 mL/kg body weight on the same respective days. The study animals were monitored in a period of up to 14 days for clinical signs, changes in behavior, and survival. The body weight was measured three times a week. The first measurement was on the application day. Criteria for early abortion of the study for ethical reasons were weight loss of more than 20% from the baseline weight. A necropsy was performed on study animals that died during the study and on all other study animals at the end of the study phase. Organ samples were taken from six study animals ([…], 1 animal from group 1, 1 animal from group 2, and one animal from group 6).

[9] = system: cancer in the head and neck, colon carcinoma, renal carcinoma, and non-small cell lung cancer; conditions: literature; cited from earlier work
[10] = system: mammary carcinoma, ovarian carcinoma, colon carcinoma, renal cell carcinoma, and non-small cell lung cancer; conditions: literature; cited from earlier work
[11] = clinical phase I; cited from earlier work

Chain of human topoisomerase IIα (P11388 whole entry): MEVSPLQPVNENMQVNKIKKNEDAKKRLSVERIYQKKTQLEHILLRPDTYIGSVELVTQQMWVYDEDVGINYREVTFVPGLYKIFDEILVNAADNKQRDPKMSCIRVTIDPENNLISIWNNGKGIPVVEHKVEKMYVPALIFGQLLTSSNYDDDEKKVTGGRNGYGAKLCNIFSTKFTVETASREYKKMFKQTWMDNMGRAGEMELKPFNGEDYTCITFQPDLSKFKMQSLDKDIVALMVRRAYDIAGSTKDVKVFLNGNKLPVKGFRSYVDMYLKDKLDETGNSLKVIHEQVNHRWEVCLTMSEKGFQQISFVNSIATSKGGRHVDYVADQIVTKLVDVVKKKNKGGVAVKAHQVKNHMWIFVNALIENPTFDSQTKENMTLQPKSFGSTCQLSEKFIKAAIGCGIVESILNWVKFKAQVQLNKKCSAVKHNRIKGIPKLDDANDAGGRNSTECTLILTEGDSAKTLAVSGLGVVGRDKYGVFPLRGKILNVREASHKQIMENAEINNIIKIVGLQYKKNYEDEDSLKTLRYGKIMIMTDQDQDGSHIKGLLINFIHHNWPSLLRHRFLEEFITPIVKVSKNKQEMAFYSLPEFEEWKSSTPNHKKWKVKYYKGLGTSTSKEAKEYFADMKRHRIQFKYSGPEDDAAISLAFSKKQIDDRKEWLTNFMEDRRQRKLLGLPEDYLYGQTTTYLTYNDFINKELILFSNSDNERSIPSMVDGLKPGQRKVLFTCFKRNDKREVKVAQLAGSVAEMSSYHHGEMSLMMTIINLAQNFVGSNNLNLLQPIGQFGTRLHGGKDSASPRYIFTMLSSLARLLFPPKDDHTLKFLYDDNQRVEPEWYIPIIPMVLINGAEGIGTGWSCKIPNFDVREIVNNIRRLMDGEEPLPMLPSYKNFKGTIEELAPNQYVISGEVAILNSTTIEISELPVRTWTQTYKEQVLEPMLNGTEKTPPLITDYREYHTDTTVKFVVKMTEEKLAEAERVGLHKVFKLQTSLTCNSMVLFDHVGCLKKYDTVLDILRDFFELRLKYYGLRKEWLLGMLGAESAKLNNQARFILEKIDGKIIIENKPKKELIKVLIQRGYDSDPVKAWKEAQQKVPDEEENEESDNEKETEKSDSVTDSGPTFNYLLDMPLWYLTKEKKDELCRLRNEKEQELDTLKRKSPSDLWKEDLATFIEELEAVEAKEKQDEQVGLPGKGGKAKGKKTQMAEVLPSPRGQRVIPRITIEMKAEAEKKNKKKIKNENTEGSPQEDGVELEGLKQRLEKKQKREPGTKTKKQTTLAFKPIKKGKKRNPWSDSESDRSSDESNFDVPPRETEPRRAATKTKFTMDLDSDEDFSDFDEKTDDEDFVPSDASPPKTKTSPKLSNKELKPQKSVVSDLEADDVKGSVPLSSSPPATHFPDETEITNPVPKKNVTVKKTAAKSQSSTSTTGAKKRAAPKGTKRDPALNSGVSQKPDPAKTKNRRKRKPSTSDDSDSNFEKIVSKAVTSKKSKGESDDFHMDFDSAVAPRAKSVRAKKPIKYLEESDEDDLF
Chain of human topoisomerase IIβ (Q02880 whole entry): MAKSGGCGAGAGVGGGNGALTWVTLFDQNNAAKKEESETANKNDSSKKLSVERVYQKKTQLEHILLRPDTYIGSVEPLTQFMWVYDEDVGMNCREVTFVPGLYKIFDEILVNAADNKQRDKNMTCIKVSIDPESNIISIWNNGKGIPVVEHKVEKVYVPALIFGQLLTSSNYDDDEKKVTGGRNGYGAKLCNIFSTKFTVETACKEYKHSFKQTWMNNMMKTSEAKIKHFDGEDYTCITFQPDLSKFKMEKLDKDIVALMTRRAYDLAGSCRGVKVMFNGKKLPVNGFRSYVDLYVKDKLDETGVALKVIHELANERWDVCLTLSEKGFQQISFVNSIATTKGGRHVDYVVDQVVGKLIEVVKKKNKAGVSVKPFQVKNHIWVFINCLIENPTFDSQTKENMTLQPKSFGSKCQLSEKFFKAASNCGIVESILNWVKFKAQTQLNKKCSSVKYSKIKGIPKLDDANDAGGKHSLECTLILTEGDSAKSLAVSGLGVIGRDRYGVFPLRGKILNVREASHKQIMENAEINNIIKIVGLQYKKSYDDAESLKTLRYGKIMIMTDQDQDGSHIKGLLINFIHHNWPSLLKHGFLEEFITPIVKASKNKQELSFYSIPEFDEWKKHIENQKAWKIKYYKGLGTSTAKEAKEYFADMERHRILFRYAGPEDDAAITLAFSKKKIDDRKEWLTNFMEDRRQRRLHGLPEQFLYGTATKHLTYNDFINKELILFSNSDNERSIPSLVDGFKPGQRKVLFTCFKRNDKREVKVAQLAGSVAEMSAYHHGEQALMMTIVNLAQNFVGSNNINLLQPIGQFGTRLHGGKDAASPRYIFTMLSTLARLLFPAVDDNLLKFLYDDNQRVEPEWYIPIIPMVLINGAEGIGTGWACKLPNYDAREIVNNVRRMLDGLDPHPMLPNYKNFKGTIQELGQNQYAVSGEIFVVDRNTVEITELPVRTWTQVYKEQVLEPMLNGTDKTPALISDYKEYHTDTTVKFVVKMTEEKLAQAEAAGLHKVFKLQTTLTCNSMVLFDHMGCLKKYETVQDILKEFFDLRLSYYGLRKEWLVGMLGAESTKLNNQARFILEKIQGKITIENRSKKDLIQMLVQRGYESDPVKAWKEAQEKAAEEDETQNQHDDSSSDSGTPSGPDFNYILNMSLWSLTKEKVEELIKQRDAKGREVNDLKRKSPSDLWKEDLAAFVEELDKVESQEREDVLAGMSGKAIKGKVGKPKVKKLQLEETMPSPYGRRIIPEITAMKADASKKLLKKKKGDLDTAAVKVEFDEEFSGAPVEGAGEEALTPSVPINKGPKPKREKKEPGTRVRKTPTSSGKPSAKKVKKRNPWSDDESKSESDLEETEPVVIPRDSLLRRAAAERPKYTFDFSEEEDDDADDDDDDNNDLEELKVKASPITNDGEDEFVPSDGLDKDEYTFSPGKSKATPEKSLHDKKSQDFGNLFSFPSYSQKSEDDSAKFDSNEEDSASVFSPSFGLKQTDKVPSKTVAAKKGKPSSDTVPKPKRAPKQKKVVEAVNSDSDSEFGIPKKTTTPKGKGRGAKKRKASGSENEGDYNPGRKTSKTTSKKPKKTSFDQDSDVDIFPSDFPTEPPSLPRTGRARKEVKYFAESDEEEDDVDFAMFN

CC[C@@]1(O)C(=O)OCc2c1cc1n(c2=O)Cc2cc3ccccc3nc2-1 [Camptothecin, reference compound]
GI50 ([1]; Homo sapiens, 48 h): 44 nM

CN(C)CCOc1nc2c(c3ccncc13)C(c1cccc(Cl)c1)Cc1ccncc1-2 (centres unmarked) [Example 3, 11-(3-chlorophenyl)-6-(2-dimethylaminoethoxy)-11,12-dihydropyrido[3,4-c]-[1,9]phenanthroline Hydrochloride]
GI50 ([1]; Homo sapiens, 48 h): 447 nM | solubility [2]: 5.28 ± 0.09 mM | chromatographic logD (logD by HPLC analysis): 3.6

COc1cccc2c1ccc1nc3cccc(C(=O)N[C@H](C)CN(C)C)c3nc12 [XR11576]
activity in xenograft [3]: high activity | clinical outcome [4]: stabilization, but no remission

COc1cc([C@@H]2c3cc4c(cc3[C@@H](O[C@@H]3O[C@@H]5CO[C@@H](C)O[C@H]5[C@H](O)[C@H]3O)[C@H]3COC(=O)[C@H]23)OCO4)cc(OC)c1O [Etoposide, reference compound]
GI50 ([1]; Homo sapiens, 48 h): 990 nM | concentration at which cleaved PARP (89 kDa band) is visible / apoptosis initiated (HeLa cells): > 100 µM

COc1ccc2c(c1)-c1nn(CCCN(C)C)c3ccc([N+](=O)[O-])c(c13)N2 [PZA, pyrazoloacridine]
GI50 ([1]; Homo sapiens, 48 h): 200 nM | concentration at which effective in PARP assay ([5]; FIG. 4): 100 µM | clinical outcome [6]: could not be cured but were stabilized over a few months | clinical outcome [7]: partial remission

COc1cc(-c2cc3ccncc3c3nc(OCCN(C)C)c4cnccc4c23)cc(OC)c1OC [Example 1, 6-(2-dimethylaminoethoxy)-11-(3,4,5-trimethoxyphenyl)pyrido[3,4-c][1,9]-phenanthroline Hydrochloride]
GI50 ([1]; Homo sapiens, 48 h): 49 nM | IC50 (human topoisomerase I; all three enzymes tested, read-out: IC50 topoisomerase I): < 10000 nM | inhibition of topoisomerase I activity (human topoisomerase I; at 10 μM, FIG. 1): almost complete | inhibition of topo IIα (human topoisomerase IIα; Hydrochloride): exemplary inhibition of topo IIα | inhibition of topo IIα (human topoisomerase IIα; listed as exemplary compound 1, Hydrochloride): potently inhibit topo IIα | IC50 (human topoisomerase IIα; all three enzymes tested, read-out: IC50 topoisomerase IIα): < 10000 nM | IC50 (human topoisomerase IIβ): < 10000 nM | concentration at which cleaved PARP (89 kDa band) is visible / apoptosis initiated (HeLa cells): 1 µM | apoptotic effect in PARP assay ([5]; FIG. 4, direct comparison with PZA): extraordinarily strong apoptotic effect | solubility [2]: 0.87 ± 0.03 mM | chromatographic logD (logD by HPLC analysis): 3.7 | tolerability ([8]; 1 mg/kg body weight, female athymic nude mice): good tolerability | loss of body weight and apathy ([8]; 5 mg/kg body weight, female athymic nude mice): reversible | acute lethal side effects ([8]; 1, 5 and 10 mg/kg body weight): None

CN(C)CCNc1nc2cc(O)ccc2c2c1C(=O)c1ccccc1-2 [TAS-103]
efficacy in patients [9]: sufficient to keep patients stable for a period of a few months, but a cure could not be achieved

Cc1cnc(NCCCN(C)C)c2c1[nH]c1ccc3cc(O)ccc3c12 [Intoplicin]
GI50 [1]: 530 nM | activity against carcinomas [10]: high activity | hepatotoxicity [11]: dose-limiting

CCc1c2c(nc3ccc(OC(=O)N4CCC(N5CCCCC5)CC4)cc13)-c1cc3c(c(=O)n1C2)COC(=O)[C@]3(O)CC [Irinotecan]
GI50 ([1]; Homo sapiens, 48 h): 160 nM

CC[C@@]1(O)C(=O)OCc2c1cc1n(c2=O)Cc2cc3c(CN(C)C)c(O)ccc3nc2-1 [Topotecan]
GI50 ([1]; Homo sapiens, 48 h): 14 nM

COc1cc(-c2cc3ccncc3c3nc(OCCCN(C)C)c4cnccc4c23)cc(OC)c1OC [Example 2, 6-(3-dimethylaminopropoxy)-11-(3,4,5-trimethoxyphenyl)pyrido[3,4-c][1,9]-phenanthroline]
GI50 ([1]; Homo sapiens, 48 h): 52 nM | chromatographic logD (logD by HPLC analysis): 3.6

COc1cc([C@@H]2c3cc4c(cc3[C@@H](O[C@@H]3O[C@@H]5CO[C@@H](c6cccs6)O[C@H]5[C@H](O)[C@H]3O)[C@H]3COC(=O)[C@H]23)OCO4)cc(OC)c1O [Teniposide]
GI50 ([1]; Homo sapiens, 48 h): 390 nM
